Results taken from patent US6369246B2, “Synthesis and pharmaceuticals of novel 9-substituted-1, 5-dichloroanthracene analogs” (Dr. Keith Chan, GloboAsia, LLC, priority 1999, dated 2002).
Where two headings read alike, the source gives them in different places.

Experiments:
[1] = test system: iron-induced lipid peroxidation in rat brain homogenates; test: Lipid peroxidation assay (TBA); assay type: biochemical, Wistar rats; conditions: ferrous ion 200 μM, 37° C. 30 min; for % Inhibition (1 μM), relative percentage of inhibition: 1 μM compound; for % Inhibition (10 μM), relative percentage of inhibition: 10 μM compound
Procedure: Rat brain homogenate was prepared from the brains of freshly killed Wistar rats and its peroxidation. In the presence of iron ions was measured by the thiobarbituric acid (TBA). Teng, C. M. et al., Eur. J. Pharmacol., 303, 129-139 (1996). Tetramethoxypropane was used as a standard, and the results were expressed as nanomoles of malondialdehyde equivalents per milligram of protein of rat brain homogenates. In brief, whole brain tissue, excluding the cerebellum, was washed and homogenized in 10 volumes of ice-cold Krebs buffer (10 mM N-2 hydroxyethyl-piperazine-N′-2-ethanesulfonic acid (Hepes), 10 mM glucose, 140 mM NaCl, 3.6 mM KCl, 1.5 mM CaCl2, 1.4 mM KH2PO4, 0.7 mM MgSO4, pH 7.4) using a glass Dounce homogenizer. […] The reaction mixture with test compounds or vehicle was incubated for 10 min, then stimulated by addition of ferrous ion (200 μM freshly prepared), and maintained at 37° C. for 30 min. The reactions were terminated by adding […] of ice-cold trichloroacetic acid solution (4% (w/v) in 0.3 N HCl) and […], of thiobarbituric acid-reactive substance reagent (0.5% (w/v) thiobarbituric acid in 50% (v/v) acetic acid). After boiling for 15 min, the samples were cooled and extracted with n-butanol. The extent of lipid peroxidation was estimated as thiobarbituric acid-reactive substances and was read at 532 nm in a spectrophotometer (Shimadzu UV-160).

[2] = test system: GBM cell line (human cervical carcinoma cells of ME 180 (GBM8401)); test: Growth inhibition assay, GBM cell line; assay type: cell-based; conditions: cell counting, read-out: IC50 GBM (concentration required to inhibit cell growth by 50% relative to controls)
Procedure: (§1) Growth inhibition was measured in three human carcinoma cell lines (GBK KB and CHO) using a previously described […] assay. Hwang, J.-M. et al., Chin. Med. J (Taipei), 51, 166-175 (1993). Human oral epidermoid carcinoma cells (KB cell line), human cervical carcinoma cells of ME 180 (GBM8401) and Chinese hamster ovary (CHO) cells grown in plateau phase were used in all experiments. Each cell line was further divided into control and experimental groups, respectively.
(§2) Stock solutions of the test compounds were prepared in DMSO and diluted with DMEM to give a final concentration of DMSO of 0.2%. Controls were performed with DMSO or with medium alone. The medium was removed and each well was rinsed with 100 μL PBS 48 hours after addition of the test compound to the culture. The cells were then incubated with sterile 0.5% trypsin, 0.2% EDTA in PBS for 20 minutes at 37° C. The detached cells from each well were suspended in DMEM and dispersed into single cells by gentle pipeting through an Eppendorf pipette and cell growth was determined directly by counting the cells in a Neubauer counting chamber using phase contrast microscopy. Inhibition was calculated by comparison of the mean values of the test compound (N=3) with the control (N=6−8) activity: (1-test compound/control) ×100. Inhibition was statistically significant compared to that of control (Student's t Test; P=0.05). IC50 values (concentration required to inhibit cell growth by 50%) were determined for each agent which was derived by interpolation of a log inhibitor concentration versus response plot using four or more different concentrations of the compound spanning the 50% inhibition point.

[3] = test system: Chinese hamster ovary (CHO) cells; test: Growth inhibition assay, CHO cells; assay type: cell-based; conditions: 48 hours, cell counting, read-out: IC50 CHO (concentration required to inhibit cell growth by 50% relative to controls)
Procedure: as §1, §2

[4] = test system: Human oral epidermoid carcinoma cells (KB cell line); test: Growth inhibition assay, KB cell line; assay type: cell-based; conditions: 48 hours, cell counting, read-out: IC50 KB (concentration required to inhibit cell growth by 50% relative to controls)
Procedure: as §1, §2

Compound	IC50 ([2]; 48 hours) [µM]	IC50 [4] [µM]	IC50 ([2]; Homo sapiens, ME-180, 48 hours) [µM]	IC50 ([4]; Homo sapiens) [µM]	% Inhibition (1 μM), relative percentage of inhibition [1] [%]	% Inhibition (10 μM), relative percentage of inhibition [1] [%]	IC50 [3] [µM]	IC50 ([3]; Cricetulus griseus) [µM]
O=C(CCc1ccccc1)Oc1c2cccc(Cl)c2cc2cccc(Cl)c12 [Compound 3w]	1730	936			29.3	36.6	1160	
CCCCCC(=O)Oc1c2cccc(Cl)c2cc2cccc(Cl)c12 [Compound 3k]	1.2	317			12.2	17.2	55.1	
COc1cccc2c1C(=O)c1c(O)c3c(c(O)c1C2=O)C[C@@](O)(C(=O)CO)C[C@@H]3O[C@H]1C[C@H](N)[C@H](O)[C@H](C)O1 [Doxorubicin, reference compound]			599	420				499
O=C(CCCCl)Oc1c2cccc(Cl)c2cc2cccc(Cl)c12 [Compound 3j]	1.1	11			10.0	29.0	1170	
O=C(Cc1ccccc1)Oc1c2cccc(Cl)c2cc2cccc(Cl)c12 [Compound 3v]	110	12.6			13.7	32.8	1190	
CO[C@@]12[C@H](COC(N)=O)C3=C(C(=O)C(C)=C(N)C3=O)N1C[C@@H]1N[C@@H]12 [Mitomycin-C, reference compound]	1900						2120	
Cc1c(C)c2c(c(C)c1O)CC[C@@](C)(CCC[C@H](C)CCC[C@H](C)CCCC(C)C)O2 [(+)-a-Tocopherol, reference compound]					61.6	100		
CC(=O)Oc1c2cccc(Cl)c2cc2cccc(Cl)c12 [Compound 3a, 1,5-Dichloro-9-acetyloxy-anthracene]			48.1	473	25.5	34.4		114
CCC(=O)Oc1c2cccc(Cl)c2cc2cccc(Cl)c12 [Compound 3d]	17.2	471			100	100	1160	
O=C(Oc1c2cccc(Cl)c2cc2cccc(Cl)c12)c1ccc(Cl)cc1Cl [Compound 3u]	87.7	108			1.7	16.0	1180	
CN(Cc1cnc2nc(N)nc(N)c2n1)c1ccc(C(=O)N[C@@H](CCC(=O)O)C(=O)O)cc1 [Methotrexate, reference compound]			9290	47200				9140
CCCC(=O)Oc1c2cccc(Cl)c2cc2cccc(Cl)c12 [Compound 3h]	572	544			11.8	17.7	0.1	
Cc1cccc(C(=O)Oc2c3cccc(Cl)c3cc3cccc(Cl)c23)c1 [Compound 3n, 1,5-Dichloro-9-(m-toluyloxy)-anthracene]	398	111			10.9	22.4	1200	
O=C(Oc1c2cccc(Cl)c2cc2cccc(Cl)c12)c1ccccc1 [Compound 3L, 1,5-Dichloro-9-benzoyloxy-anthracene]			226	813	4.6	14.0		1440
Cc1ccccc1C(=O)Oc1c2cccc(Cl)c2cc2cccc(Cl)c12 [Compound 3m]	108	1140			0	23.0	1510	
CC(C)C(=O)Oc1c2cccc(Cl)c2cc2cccc(Cl)c12 [Compound 3e]	196	431			1.5	28.6	1310	
O=C(Oc1c2cccc(Cl)c2cc2cccc(Cl)c12)c1cccc(Cl)c1 [Compound 3p]	11.7	1050			8.6	30.6		

More lines, in order of falling IC50 ([2]; 48 hours), values ahead:

IC50 ([2]; 48 hours) [µM]	IC50 [4] [µM]	IC50 ([2]; Homo sapiens, ME-180, 48 hours) [µM]	IC50 ([4]; Homo sapiens) [µM]	Compound	% Inhibition (1 μM), relative percentage of inhibition [1] [%]	% Inhibition (10 μM), relative percentage of inhibition [1] [%]	IC50 [3] [µM]	IC50 ([3]; Cricetulus griseus) [µM]
205	457			O=C(CCCBr)Oc1c2cccc(Cl)c2cc2cccc(Cl)c12 [Compound 3i]	38.1	100	110	
126	374			CC(Cl)C(=O)Oc1c2cccc(Cl)c2cc2cccc(Cl)c12 (stereo not drawn) [Compound 3f]	9.8	60.6	955	
106	528			O=C(CCl)Oc1c2cccc(Cl)c2cc2cccc(Cl)c12 [Compound 3c]	100	100	1.2	
19.2	136			O=C(CBr)Oc1c2cccc(Cl)c2cc2cccc(Cl)c12 [Compound 3b]	100	100	1010	
11.2	865			1,5-Dichloro-9-(p-toluoxy)-anthracene [Compound 3o]	2.9	25.6		
10.8	818			COc1cc(Cl)ccc1C(=O)Oc1c2cccc(Cl)c2cc2cccc(Cl)c12 [Compound 3t]	0	10.3	114	
1.4	528			O=C(Oc1c2cccc(Cl)c2cc2cccc(Cl)c12)C(Cl)Cl [Compound 3g]	61.7	100	1280	
